Data from patent publication US11364227B2 (priority 2020, dated 2022).

Experiments:
ARDS induced thrombosis = experiment: Rat venous stasis (Wessler) model after LPS-induced lung injury (ARDS induced thrombosis); assay type: in vivo, Sprague-Dawley rats; conditions: 250 mg/kg oral gavage 3, 24, 48, 72 h post LPS instillation; rat venous stasis 30 min
From the text: This study assessed the efficacy of ABC294640 to reduce the incidence of adverse thromboembolic events in situ in acute respiratory distress syndrome (ARDS) conditions using a rat venous stasis model. This assay is designed to measure thrombotic risks following LPS-induced lung injury. LPS-induced lung injury is one of the most commonly used rodent models for ARDS and was described to mimic the neutrophilic inflammatory response observed in ARDS patients. The mechanism of LPS-induced ARDS is based on damage to endothelial cells and a systemic inflammatory response. […]
Sprague-Dawley rats (male) weighing between 275 and 400 g were used for this study. […] The body weight was recorded before the instillation and 24, 48 and 72 hours post-instillation.
In this study, ARDS was induced by intratracheal instillation of LPS. […] The segment was then excised and its content scored. […]
• 1. Prior LPS or saline instillation, the functional respiratory parameters of all rat was assessed by whole-body plethysmography and SpO2 was evaluated on conscious rat with a collar probe pulse oximeter. […] The respiratory rate, the Penh and the inspiratory/expiratory time measurements was analyzed. • 2. […]
• 5. Rats were evaluated periodically to ensure animal well-being (general behavior and daily body weight). • 6. […] SpO2 and whole-body plethysmography were also evaluated 24, 48 and 72 hours post-instillation. • 8. […]

[1] = Physical description of opaganib drug substance (solubility, hygroscopicity); assay type: physicochemical
[2] = tested on: COVID-19 infection (SARS-CoV-2); experiment: Pilot / compassionate use study of opaganib in patients hospitalized with COVID-19 pneumonia; assay type: in vivo, human
Method: Patients entered a screening period of up to 1 week. Eligible patients entered the treatment period for up to 2 weeks. All participants were followed for 2 weeks after their last dose of study drug, at the end of the 2 week treatment period, or once they had 2 consecutive daily negative viral swabs for the COVID-19 virus or at after premature drug discontinuation prior to Day 14. The maximum duration of study participation was 35 days […].
Each dose is administered with food or 15-30 minutes after tube-feeding, where appropriate. […] These patients had moderate to severe COVID-19-related pneumonia with hypoxia on supplemental oxygen.
Five patients were included in the analysis, and for comparison purposes, we used a control group with same-sex, same-severity patients (baseline characteristics). Univariate comparisons between the groups were performed with chi-square test for categorical variables and t-test or MannWhitney U-test for continuous variables, as appropriate. Time variables were compared with Cox proportional hazard regression, adjusted for age and background illnesses. CRP and lymphocyte changes were compared utilizing a repeated measures general linear model with a Bonferroni correction for multiple comparison.

[3] = tested on: human bronchial epithelial cells (HBEC); conditions: highest concentration tested, 11.25 μg/ml
[4] = tested on: SARS-CoV-2 clinical isolate (2019-nCoV/USA-WA1/2020); experiment: Anti-viral activity against SARS-CoV-2 in human bronchial epithelial cell (HBEC, EpiAirway) air-liquid-interface cultures, viral titer by TCID50; assay type: cell-based
[5] = tested on: COVID-19 pneumonia (SARS-CoV-2); experiment: Randomized, double-blind, placebo-controlled Phase 2a study of opaganib in COVID-19 pneumonia; assay type: in vivo, human
From the text: This was a phase 2a, proof of concept, multi-center randomized double-blind, parallel arm, placebo-controlled study. After informed consent was obtained, patients entered a screening phase for no more than 3 days, to determine eligibility. […] Treatment assignments remained blinded to the patient, investigator and hospital staff, as well as the sponsor. As there was no consensus for a definitive treatment specifically targeting the SARS-CoV-2 virus causing COVID-19 (Wilson, 2020), standard of care referred to regional, institutional or physician directed therapies, that were implemented during the COVID-19 pandemic.
Study drug was to be administered every day for 14 days (Day 1 to Day 14), unless the patient had been discharged from the hospital without requiring supplemental oxygen, in which case study drug would only be administered to Day 10.
Two patients were randomized in each group but not treated. […] Two patients in the opaganib arm experienced adverse events such that study drug was terminated, while one placebo patient was terminated due to an adverse event.
The primary efficacy endpoint calculated for each patient the area under the curve of the supplemental oxygen requirement through day 14, using the trapezoidal rule after subtracting the baseline oxygen requirement at each day. Days where no supplementary oxygen was needed, were recorded as 0. If several values of oxygen requirement (L/min) are recorded in a certain day, for the primary analysis the highest of these values were taken. In the primary analysis, for patients who die before Day 14, or require intubation and mechanical ventilation, missing daily values were assigned the maximal supplemental oxygen flow requirement of 8 L/min. For patients discharged from hospital on supplemental oxygen prior to Day 14, if no values were collected by the site after discharge, the oxygen requirement (L/min) on the day of discharge were to be assigned thereafter for each day to Day 14.
Supplemental oxygen requirement up to Day 14 was collected even if a patient discontinued treatment prior to Day 14 but continued in the study to Day 14. Further, it was assumed that loss to follow up such that vital status up to Day 14 were missing is unlikely. Therefore, the primary analysis assumed that in case that all supplemental oxygen values are missing after treatment discontinuation, the last value is carried forward—until Day 14, or death, if occurred before. A sensitivity analysis to the above missing data handling approach was performed using an AUC summary statistics approach, in which groups AUC is calculated from the estimated parameters of a Repeated-Measures model.
Within the mITT cohort, two subjects withdrew their consent due to grade 1 gastrointestinal AEs.

[6] = of 6 moderate-to-severe patients treated, opaganib plus standard-of-care

O=C(NCc1ccncc1)C12CC3CC(C1)CC(c1ccc(Cl)cc1)(C3)C2 [ABC294640, 3-(4-chlorophenyl)-adamantane-1-carboxylic acid (pyridin-4-ylmethyl)amide]
thrombosis (blood clot length, weight and total thrombus score) (ARDS induced thrombosis): reduction of thrombosis

Cl.O=C(NCc1ccncc1)C12CC3CC(C1)CC(c1ccc(Cl)cc1)(C3)C2 [opaganib, 3-(4-chlorophenyl)-adamantane-1-carboxylic acid (pyridin-4-ylmethyl) amide, hydrochloride salt]
solubility in water and ethyl acetate [1]: practically insoluble
hygroscopicity ([1]; solid): non-hygroscopic
HR for time to weaning from HFNC, cases vs. controls ([2]; Cox regression, 95% CI: 0.07-1.7, p=0.2): 0.3
HR for time to ambient air, cases vs. controls ([2]; Cox regression, 95% CI: 0.15-1.5): 0.4
Clinical Assessment ([2]; Patient 1 (14 d), started as severe on maximal OptiFlow Apr. 3, 2020, RA = room air): Apr. 3, 2020; RA by 16/4. As of 22/4, one negative
Lymphocytes, most recent ([2]; Patient 1 (14 d on opaganib), baseline 1.6, Apr. 17, 2020): 2.8 (Apr. 17, 2020) 10^3/mm^3
CRP, most recent ([2]; Patient 1 (14 d on opaganib), baseline 15.1, Apr. 17, 2020): 1 (Apr. 17, 2020) mg/L
Clinical Assessment ([2]; Patient 2 (14 d), started as severe+, planning for intubation Apr. 7, 2020, RA = room air, D/C = discharged): Apr. 7, 2020; RA by Apr. 20, 2020, D/C on Apr. 22, 2020
Lymphocytes, most recent ([2]; Patient 2 (14 d on opaganib), baseline 1.1, Apr. 17, 2020): 2.1 (Apr. 17, 2020) 10^3/mm^3
CRP, most recent ([2]; Patient 2 (14 d on opaganib), baseline 14.2, Apr. 17, 2020): 4.8 (Apr. 17, 2020) mg/L
Clinical Assessment ([2]; Patient 3 (7 d), moderate-severe, on OptiFlow Apr. 13, 2020, D/C = discharged): Apr. 7, 200, D/C on Apr. 19, 2020
Lymphocytes, most recent ([2]; Patient 3 (7 d on opaganib), baseline 0.9, Apr. 17, 2020): 1.2 (Apr. 17, 2020) 10^3/mm^3
CRP, most recent ([2]; Patient 3 (7 d on opaganib), baseline 10.7, Apr. 17, 2020): 1.7 (Apr. 17, 2020) mg/L
Clinical Assessment ([2]; Patient 4 (11 d), started severe+ 70% OptiFlow on Apr. 13, 2020, RA = room air): RA on Apr. 22, 2020
Lymphocytes, most recent ([2]; Patient 4 (11 d on opaganib), baseline 1.2, Apr. 22, 2020): 1 (Apr. 22, 2020) 10^3/mm^3
CRP, most recent ([2]; Patient 4 (11 d on opaganib), baseline 24.8, Apr. 22, 2020): 17.4 (Apr. 22, 2020) mg/L
Clinical Assessment ([2]; Patient 5 (2 d), started moderate on Apr. 13, 2020, nasal cannula, D/C = discharged, RA = room air): opaganib; D/C on Apr. 14, 2020 on RA
Lymphocytes, most recent ([2]; Patient 6 (5 d on opaganib), baseline 1.35, Apr. 24, 2020): 1.96 (Apr. 24, 2020) 10^3/mm^3
CRP, most recent ([2]; Patient 6 (5 d on opaganib), baseline 12.2, Apr. 24, 2020): 6.8 (Apr. 24, 2020) mg/L
adverse event leading to discontinuation ([2]; Patient 7, also on HCQ and azithromycin, may or may not be related to opaganib, all 3 meds stopped): Diarrhea the next day, all 3 meds were stopped, followed by worsening SOB, on 75% OptiFlow.
clinical improvement ([2]; all 6 moderate to-severe patients (patient #7 excepted)): improved significantly
C-Reactive Protein (CRP) change ([2]; all six patients): reduction in C-Reactive Protein (CRP)
time to ambient air ([2]; cases, controls 14.5 days): 13 days
median time to weaning from high-flow nasal cannula (HFNC) ([2]; cases, controls 15 days, p=0.2): 10 days
cases requiring mechanical ventilation ([2]; compared with 33% of controls): none of the cases required mechanical ventilation
increase in lymphocyte count vs matched control group ([2]; five patients analysed vs same-sex, same-severity controls): significantly faster increase in lymphocyte count
number of patients back to breathing room air [2, 6]: 5 patients
number of patients discharged from hospital [2, 6]: 3 patients
safety and tolerability ([2]; small cohort of severe COVID-19 patients): safe and well tolerated
cell viability [3]: remained viable
concentration at which complete inhibition of infectious virus production starts ([4]; SARS-CoV-2-infected HBEC, 3 days incubation): 1 µg/mL
infectious virus production ([4]; SARS-CoV-2-infected HBEC, 3 days incubation, 0.05 to 11.25 μg/ml): dose-dependent reduction
inhibition at 0.05 µg/mL ([4]; Severe acute respiratory syndrome coronavirus 2, Epithelial cell, read-out: inhibition of infectious virus production): > 90%
proportion of patients reaching room air and no longer requiring oxygen support by Day 14 ([5]; opaganib 500 mg Q12 h + standard of care, control arm 22.2%): 52.6%
reduction from baseline of the medial total oxygen requirement (AUC) over 14 days ([5]; opaganib 500 mg Q12 h + standard of care, control arm 46.7%): 68.0%
proportion of patients discharged by Day 14 ([5]; opaganib 500 mg Q12 h + standard of care, control arm 55.6%): 73.7%
proportion of patients with 50% reduction in supplemental oxygen by day 14 ([5]; opaganib 500 mg Q12 h + standard of care, control arm 66.7%): 89.5%
patients with adverse events such that study drug was terminated ([5]; opaganib arm, one in placebo arm): Two
patients with serious adverse events (SAEs) vs placebo arm ([5]; opaganib treatment arm compared with placebo arm): fewer patients suffered from serious adverse events
safety (top-line) ([5]; vs placebo arm): safe, with no material safety differences
